The test system of one experiment is islets. As to the kind of experiment: [U-14C]-glutamine oxidation in islets. The class given is cell-based, rat. The method, then:
In a first experiment, a batch of 100 islets were incubated with glucose-free Krebs-Ringer bicarbonate buffer, as described herein, containing 20 μM EGCG or 20 μM EGC and 2 mM glutamine for 60 minutes. The islets were then incubated in the presence of varying concentrations of BCH (shown in FIG. 7A) for 60 minutes, and for an additional 60 minutes in the presence of 2 mCi [U-^14C]-glutamine (NEN-Life Science Products, UK). Next, [U-^14C]-glutamine oxidation in the incubated islets was measured. A trap filter was placed in each tightly sealed glass tube of the perifusion apparatus to collect the ^14CO2 produced by the islets, and the amount of radioactivity was determined by liquid scintillation counting. The results are summarized in FIG. 7A, and are presented as means±S.E. from 4 separate experiments. […] The islets were then incubated in the presence of 10 mM BCH (or no BCH—to measure “baseline” glutamine oxidation levels) for 60 minutes. The islets were then incubated for an additional 60 minutes in the presence of 2 mCi [U-^14C]-glutamine (NEN-Life Science Products, UK). Next, [U-^14C]-glutamine oxidation in the incubated islets was measured, as described above.

In another experiment the target is T1, GDH (Bos taurus, UniProt P00366).
T1 construct: purchased Sigma Aldrich Chemical Company (St. Louis, Mo.)
As to the kind of experiment: steady state kinetic analysis of reductive amination, NADH or 2-oxoglutarate varied (Lineweaver-Burke plots). It is filed as biochemical, bovine. More on the design: Y-intercept (Lineweaver-Burke): unit not given beside the values. As for the experimental part: (§1) First, aliquots of GDH were extensively dialyzed against 0.1M sodium phosphate buffer, pH 7.0, which contained 1 mM ethylenediaminetetraacetic acid (EDTA). The enzyme concentrations were adjusted to 1 mg/ml and the amount of enzyme added to the reaction mixture, for kinetic analysis, was adjusted to yield optimal steady state velocity measurements. All solutions were made immediately prior to use. Enzyme assays were performed by monitoring reduced coenzyme absorbance at 340 nm using a Shimadzu UV-1601 spectrophotometer. The reductive amination reactions were performed in 3 mL volumes at pH 7.0 in the presence of 0.1 mM nicotinamide adenine dinucleotide (NADH), 50 mM NH4Cl, and 5 mM 2-oxoglutarate. The rate of NADH oxidation was calculated using an extinction coefficient of 6.22 mM^−1 cm^−1.
In this Example, EGCG was added to a reaction (at a final concentration of 0.0, 0.3, or 0.6 μM), along with various concentrations of NADH or 2-oxoglutarate, to further ascertain how EGCG inhibits the reductive amination reaction catalyzed by GDH. Such kinetic analysis was carried out as described above in Example 1.

Experiment [1] relates to rat islets. In words: BCH-stimulated insulin secretion and oxygen consumption in perifused islets. The class given is cell-based, Wistar rat. The method, then:
In this Example, the effects of EGCG and EGC on LSIS were measured, while simultaneously monitoring respiration rates. More particularly, the effects of EGCG (20 μM) and EGC (20 μM) on BCH-stimulated insulin secretion were measured. First, 1000 adult male Wistar rat islets were isolated as described above and were cultured on a glass perfusion chamber in 10 mM glucose for 3 days. Next, the islets were perifused in an oxygen consumption measurement apparatus containing BCH, along with 0 μM EGCG and 0 μM EGC, 20 μM EGCG, or 20 μM EGC. The perifusion apparatus used in these Examples consisted of a peristaltic pump, a water bath (37° C.), a gas exchanger (artificial lung: media flowed through the thin-walled silastic tubing loosely coiled in a glass jar that contained 20% O2 and 5% CO2 balanced with N2), and fraction collector. All transfer lines were insulated. After the system was provided with 20 μM EGCG or 20 μM EGC, oxygen partial pressure was recorded every 10 seconds by phosphorescence lifetimes of an oxygen-sensitive porphyrin (palladium-mesotetra; 4-carboxyphenyl porphyrin dendrimer). The dye molecules were excited with pulses at 524 nm from a UV lead and emission was measured at 690 nm. The inflow oxygen tension was measured in the absence of islets in the chamber before and after each experiment. The perifusate was a Krebs buffer (pH 7.4) containing 2.2 mM Ca^2+, 1% bovine serum albumin equilibrated with 20% O2 and 5% CO2 balanced with N2. The flow rate was […] and samples were collected every 2 minutes for insulin measurements by radioimmunoassay. The results are summarized in FIG. 6, and are presented as means±S.E. for 1000 islets from 3 separate experiments for EGCG (and from 1 experiment for EGC). Due to the high density of data, S.E. is only shown in every 20 samples.

Experiment [2] deals with rat islets. As to the kind of experiment: BCH-stimulated insulin secretion in perifused islets (120 minute run-down, BCH ramp). The class given is cell-based, Wistar rat. The method, then:
In this Example, adult male Wistar rat islets were isolated by collagenase digestion and initially cultured in glucose-free RPMI […] medium (Sigma Aldrich Chemical Company, St. Louis, Mo.). The culture medium was supplemented with 10% fetal bovine serum, 2 mM glutamine, 100 units/mL penicillin, and 50 μg/mL streptomycin.
The islets were then perifused in the absence of glucose and in the presence of 2 mM glutamine (and the different concentrations of EGCG or EGC shown in FIG. 5) for run-down periods of 120 minutes prior to stimulation with a BCH ramp (0 to 10 mM, 0.2 mM/minute). Specifically, 100 cultured rat islets were loaded onto nylon filters in a small chamber and perifused in a Krebs-Ringer bicarbonate buffer (115 mmol/liter NaCl, 24 mmol/liter NaHCO3, 5 mmol/liter KCl, 1 mmol/liter MgCl2, 2.5 mmol/liter CaCl2, in 10 mM HEPES, pH 7.4) with 0.25% bovine serum albumin at a flow rate of 2 mL/minute. Perifusate solutions were gassed with 95% O2/5% CO2 and maintained at 37° C. Finally, the islets were exposed to 30 mM KCl. Samples were collected every minute to measure insulin levels by radioimmunoassay.

Experiment [3] concerns 'antenna-less' form of human GDH. In words: kinetic analysis of 'antenna-less' human GDH. Particulars: FIG. 4. It is filed as biochemical. The method, then:
as §1
To this end, EGCG was tested against five different HI/HA mutant forms of GDH, namely, R265K, R269C, E296A, S448P, and H454Y. In addition, EGCG was tested against human wild type GDH (“WT”), GDH from Tetrahymena thermophilia (“tGDH”) that, like the HI/HA mutant GDH enzymes, is not regulated by GTP, and a human GDH that was missing a certain 48 residue ‘antenna-like’ feature protruding from the top of each of its six subunits that is necessary for ADP, GTP, and Palmitoyl CoA regulation. […]

Where [4] appears, read: 2-oxoglutarate varied, [EGCG] 0.3 μM.
Setting [5] is: 2-oxoglutarate varied, [EGCG] 0.6 μM.

T1 sequence (P00366 58-558): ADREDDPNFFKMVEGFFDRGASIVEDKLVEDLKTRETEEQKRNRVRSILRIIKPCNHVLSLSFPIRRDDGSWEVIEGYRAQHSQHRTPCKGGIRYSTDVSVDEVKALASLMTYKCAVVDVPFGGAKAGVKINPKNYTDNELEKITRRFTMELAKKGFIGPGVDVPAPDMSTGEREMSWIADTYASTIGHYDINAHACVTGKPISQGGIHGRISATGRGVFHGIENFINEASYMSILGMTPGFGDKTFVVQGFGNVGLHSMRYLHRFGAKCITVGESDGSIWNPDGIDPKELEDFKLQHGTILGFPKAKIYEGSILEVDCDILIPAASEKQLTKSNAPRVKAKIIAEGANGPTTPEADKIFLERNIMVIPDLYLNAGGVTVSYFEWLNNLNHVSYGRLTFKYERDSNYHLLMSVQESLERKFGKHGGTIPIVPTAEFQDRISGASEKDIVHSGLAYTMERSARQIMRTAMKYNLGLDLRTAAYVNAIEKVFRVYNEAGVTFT

With `O=C(O[C@@H]1Cc2c(O)cc(O)cc2O[C@@H]1c1cc(O)c(O)c(O)c1)c1cc(O)c(O)c(O)c1` [EGCG, (2R,3R)-2-(3,4,5-Trihydroxyphenyl)-3,4-dihydro-1 (2H)-benzopyran-3,5,7-triol 3-(3,4,5-trihydroxybenzoate)], the “block of BCH stimulation of glutaminolysis (glutamine oxidation)” value in the experiment on islets (20 μM, 2 mM glutamine, FIG. 7A) is “completely blocked”. Besides, the “effect on basal levels of glutamine oxidation” value with islets (3 mM glutamine, no BCH, FIG. 7D) is “does not have an effect”. Also, the “effect on 10 mM BCH-stimulated glutamine oxidation” value with islets (3 mM glutamine, FIG. 7B, 7C) is recorded as “inhibits glutamine oxidation in a dose-dependent manner”. Moreover, the “concentration of maximal effects on glutamine oxidation” value in the experiment with islets (10 mM BCH, 3 mM glutamine, FIG. 7B) is recorded as “approximately 20 μM”. The “Slope (Lineweaver-Burke)” value was determined as 0.039 ± 0.002 at GDH (setting [4]); 0.15 ± 0.02 at GDH (setting [5]); 0.0026 ± 0.0002 on GDH (NADH varied, [EGCG] 0.3 μM); 0.0040 ± 0.0003 on GDH (NADH varied, [EGCG] 0.6 μM). Moreover, the “Y-intercept (Lineweaver-Burke)” value at GDH (setting [4]) is reported as 0.24 ± 0.1; on GDH (setting [5]) it was 0.097 ± 0.5; at GDH (NADH varied, [EGCG] 0.3 μM), 0.15 ± 0.01; on GDH (NADH varied, [EGCG] 0.6 μM) it was 0.2000 ± 0.02. In addition, the mode of inhibition result on GDH (versus NADH and 2-oxoglutarate) was “non-competitive inhibition”. Also, in the experiment with rat islets [1] (20 μM, FIG. 6A), the “effect on LSIS (BCH-induced insulin secretion)” value is “strongly inhibited”. In addition, in the experiment on rat islets [1] (20 μM, FIG. 6B), the “effect on BCH-induced increase in respiration rates” value is given as “inhibited”. For the same molecule, the “effect on oxygen consumption in the absence of BCH” value in the experiment with rat islets [1] (data not shown) is “did not have any significant effect”. Moreover, the “intrinsic ability of the cells to secrete insulin (depolarization by KCl)” value with rat islets [2] (30 mM KCl) was “did not affect”. The “BCH stimulation of insulin secretion blocked” value with rat islets [2] (FIG. 5) is “blocked”. Also, the “inhibition of 'antenna-less' human GDH” value in experiment [3] is “did not inhibit”.

These data come from US20060263453A1, “Methods and compositions for modulating glutamate dehydrogenase” (priority 2004, published 2006).
